Experimental data published in publication PMC9865890, “N-Derivatives of (Z)-Methyl 3-(4-Oxo-2-thioxothiazolidin-5-ylidene)methyl)-1H-indole-2-carboxylates as Antimicrobial Agents—In Silico and In Vitro Evaluation” (Pharmaceuticals, 2023).
Converted amounts (≈) assume the structure as drawn. Like-named read-outs stand apart in the source and are kept apart here.

What was measured:
[1] = test system: Bacillus cereus (clinical isolate); assay: Antibacterial microdilution (MIC/MBC); assay type: cell-based; conditions: Bacillus cereus, B.c. (B. cereus); for MIC: read-out: MIC
Description: (§1) The synthesized compounds (Table 1) were evaluated for their antibacterial activity against a panel of eight species using a microdilution method with ampicillin and streptomycin as reference drugs. […] The order of activity can be presented as: 8 > 11 > 2 > 1 > 12 > 3 > 17 > 7 > 5 > 13 > 14 > 16 > 9 > 4 = 6 > 15 > 10. […] Cloacae. […] The most sensitive bacteria appeared to be En. cloacae, while E. coli was the most resistant one, followed by M. flavus.
(§2) The following Gram-negative bacteria: Escherichia coli (ATCC 35210), Enterobacter cloacae (clinical isolate), Salmonella typhimurium (ATCC 13311), as well as Gram-positive bacteria: Listeria monocytogenes (NCTC 7973), Bacillus cereus (clinical isolate), and Staphylococcus aureus (ATCC 6538) were used. The organisms were obtained from the Mycological Laboratory, Department of Plant Physiology, Institute for Biological Research “Siniša Stankovic”, Belgrade, Serbia. The minimum inhibitory (MIC) and minimum bactericidal (MBC) concentrations were determined by the modified microdilution method, as previously reported.

[2] = test system: Enterobacter cloacae (clinical isolate); assay: Antibacterial microdilution (MIC/MBC); assay type: cell-based; conditions: Enterobacter cloacae, En.cl (En. cloacae); for MIC: read-out: MIC
Description: as §1, §2

[3] = test system: Escherichia coli (ATCC 35210); assay: Antibacterial microdilution (MIC/MBC); assay type: cell-based; conditions: Escherichia coli, ATCC35210, E. coli; for MIC: read-out: MIC
Description: as §1, §2

[4] = test system: Listeria monocytogenes (NCTC 7973); assay: Antibacterial microdilution (MIC/MBC); assay type: cell-based; conditions: Listeria monocytogenes, NCTC7973, L.m. (L. monocytogenes); for MIC: read-out: MIC
Description: as §1, §2

[5] = test system: M. flavus; assay: Antibacterial microdilution (MIC/MBC); assay type: cell-based; conditions: Micrococcus flavus; M.f. (M. flavus)
Description: as §1, §2

[6] = test system: P. aeruginosa; assay: Antibacterial microdilution (MIC/MBC); assay type: cell-based; conditions: Pseudomonas aeruginosa, P.a. (P. aeruginosa); for MIC: read-out: MIC
Description: as §1, §2

[7] = test system: Salmonella typhimurium (ATCC 13311); assay: Antibacterial microdilution (MIC/MBC); assay type: cell-based; conditions: Salmonella enterica, S.t. (S. typhimurium); for MIC: read-out: MIC
Description: as §1, §2

[8] = test system: Staphylococcus aureus (ATCC 6538); assay: Antibacterial microdilution (MIC/MBC); assay type: cell-based; conditions: S.a. (S. aureus)
Description: as §1, §2

[9] = test system: A. ochraceus; assay: Antifungal bioassay (MIC/MFC); assay type: cell-based; conditions: A.o. (A. ochraceus)
Description: (§3) For the antifungal bioassays, six fungi were used: […] The organisms were obtained from the Mycological Laboratory, Department of Plant Physiology, Institute for Biological Research “Siniša Stankovic”, Belgrade, Serbia. All experiments were performed in duplicate.

[10] = test system: Aspergillus fumigatus (ATCC 1022); assay: Antifungal bioassay (MIC/MFC); assay type: cell-based; conditions: ATCC1022, A.f. (A. fumigatus)
Description: as §3

[11] = test system: Aspergillus niger (ATCC 6275); assay: Antifungal bioassay (MIC/MFC); assay type: cell-based; conditions: ATCC6275, A.n. (A. niger)
Description: as §3

[12] = test system: Aspergillus versicolor (ATCC 11730); assay: Antifungal bioassay (MIC/MFC); assay type: cell-based; conditions: ATCC11730, A.v. (A. versicolor)
Description: as §3

[13] = test system: P. ochrochloron; assay: Antifungal bioassay (MIC/MFC); assay type: cell-based; conditions: Penicillium ochrochloron; for MFC: P.o. (P. ochrochloron); for MIC: P.o. (P. ochrochloron; text: P. ochramensis), read-out: MIC
Description: as §3

[14] = test system: Penicillium funiculosum (ATCC 36839); assay: Antifungal bioassay (MIC/MFC); assay type: cell-based; conditions: Talaromyces funiculosus, ATCC36839; P.f. (P. funiculosum)
Description: as §3

[15] = test system: Trichoderma viride (IAM 5061); assay: Antifungal bioassay (MIC/MFC); assay type: cell-based; conditions: T.v. (T. viride)
Description: as §3

[16] = test system: Penicillium verrucosum var. cyclopium (food isolate); assay: Antifungal bioassay (MIC/MFC); assay type: cell-based
Description: For the antifungal bioassays, six fungi were used: Aspergillus niger (ATCC 6275), Aspergillus fumigatus (ATCC 1022), Aspergillus versicolor (ATCC 11730), Penicillium funiculosum (ATCC 36839), Trichoderma viride (IAM 5061), and Penicillium verrucosum var. cyclopium (food isolate). The organisms were obtained from the Mycological Laboratory, Department of Plant Physiology, Institute for Biological Research “Siniša Stankovic”, Belgrade, Serbia. All experiments were performed in duplicate.

[17] = Staphylococcus aureus, ATCC6538
[18] = Staphylococcus aureus, ATCC6538, read-out: MIC
[19] = Aspergillus ochraceus, read-out: MIC
[20] = Trichoderma viride, IAM5061, read-out: MIC

COC(=O)c1[nH]c2ccccc2c1/C=C1\SC(=S)N(c2ccc(O)cc2)C1=O [Compound 4, (Z)-methyl 3-((3-(4-hydroxyphenyl)-4-oxo-2-thioxothiazolidin-5-ylidene)methyl)-1H-indole-2-carboxylate]
MBC [1]: 60 ± 6 µg/mL (≈ 146 µM) | MIC [1]: 30 ± 10 µg/mL (≈ 73.1 µM) | MBC [2]: 30 ± 10 µg/mL (≈ 73.1 µM) | MIC [2]: 15 ± 9 µg/mL (≈ 36.5 µM) | MBC [3]: 60 ± 6 µg/mL (≈ 146 µM) | MIC [3]: 45 ± 3 µg/mL (≈ 110 µM) | MBC [4]: 60 ± 6 µg/mL (≈ 146 µM) | MIC [4]: 45 ± 1 µg/mL (≈ 110 µM) | MBC [5]: 60 ± 6 µg/mL (≈ 146 µM) | MIC [5]: 45 ± 3 µg/mL (≈ 110 µM) | MBC [6]: 60 ± 6 µg/mL (≈ 146 µM) | MIC [6]: 30 ± 10 µg/mL (≈ 73.1 µM) | MBC [7]: 60 ± 6 µg/mL (≈ 146 µM) | MIC [7]: 45 ± 3 µg/mL (≈ 110 µM) | MBC [8, 17]: 60 ± 6 µg/mL (≈ 146 µM) | MIC [8, 18]: 30 ± 10 µg/mL (≈ 73.1 µM) | MFC ([9]; Aspergillus ochraceus): 15 ± 3 µg/mL (≈ 36.5 µM) | MIC [9, 19]: 8 ± 0.6 µg/mL (≈ 19.5 µM) | MFC [10]: 120 ± 40 µg/mL (≈ 292 µM) | MIC [10]: 60 ± 6 µg/mL (≈ 146 µM) | MFC [11]: 30 ± 10 µg/mL (≈ 73.1 µM) | MIC [11]: 15 ± 3 µg/mL (≈ 36.5 µM) | MFC [12]: 15 ± 3 µg/mL (≈ 36.5 µM) | MIC [12]: 8 ± 0.6 µg/mL (≈ 19.5 µM) | MFC [13]: 30 ± 10 µg/mL (≈ 73.1 µM) | MIC [13]: 15 ± 3 µg/mL (≈ 36.5 µM) | MFC [14]: 30 ± 10 µg/mL (≈ 73.1 µM) | MIC [14]: 15 ± 3 µg/mL (≈ 36.5 µM) | MIC [15]: 8 ± 0.6 µg/mL (≈ 19.5 µM) | MFC ([15]; Trichoderma viride, IAM5061): 15 ± 3 µg/mL (≈ 36.5 µM) | MIC [15, 20]: 8 µg/mL (≈ 19.5 µM) | MFC [16]: 60 ± 6 µg/mL (≈ 146 µM) | MIC [16]: 30 ± 10 µg/mL (≈ 73.1 µM) | melting point: 282 to 284 °C

COC(=O)c1[nH]c2ccccc2c1/C=C1\SC(=S)N(CCCN2CCOCC2)C1=O [Compound 5, (Z)-methyl 3-((3-(3-morpholinopropyl)-4-oxo-2-thioxothiazolidin-5-ylidene)methyl)-1H-indole-2-carboxylate]
MBC [1]: 60 ± 6 µg/mL (≈ 135 µM) | MIC [1]: 30 ± 10 µg/mL (≈ 67.3 µM) | MBC [2]: 30 ± 10 µg/mL (≈ 67.3 µM) | MIC [2]: 15 ± 9 µg/mL (≈ 33.7 µM) | MBC [3]: 60 ± 6 µg/mL (≈ 135 µM) | MIC [3]: 30 ± 10 µg/mL (≈ 67.3 µM) | MBC [4]: 60 ± 6 µg/mL (≈ 135 µM) | MIC [4]: 30 ± 10 µg/mL (≈ 67.3 µM) | MBC [5]: 60 ± 6 µg/mL (≈ 135 µM) | MIC [5]: 45 ± 3 µg/mL (≈ 101 µM) | MBC [6]: 60 ± 6 µg/mL (≈ 135 µM) | MIC [6]: 30 ± 10 µg/mL (≈ 67.3 µM) | MBC [7]: 30 ± 10 µg/mL (≈ 67.3 µM) | MIC [7]: 22 ± 5 µg/mL (≈ 49.4 µM) | MIC [8]: 15 ± 9 µg/mL (≈ 33.7 µM) | MBC [8, 17]: 30 ± 10 µg/mL (≈ 67.3 µM) | MIC [8, 18]: 15 µg/mL (≈ 33.7 µM) | MFC ([9]; Aspergillus ochraceus): 15 ± 3 µg/mL (≈ 33.7 µM) | MIC [9, 19]: 8 ± 0.6 µg/mL (≈ 18 µM) | MFC [10]: 120 ± 40 µg/mL (≈ 269 µM) | MIC [10]: 60 ± 6 µg/mL (≈ 135 µM) | MFC [11]: 30 ± 10 µg/mL (≈ 67.3 µM) | MIC [11]: 15 ± 3 µg/mL (≈ 33.7 µM) | MFC [12]: 15 ± 3 µg/mL (≈ 33.7 µM) | MIC [12]: 8 ± 0.6 µg/mL (≈ 18 µM) | MFC [13]: 15 ± 3 µg/mL (≈ 33.7 µM) | MIC [13]: 110 ± 10 µg/mL (≈ 247 µM) | MFC [14]: 30 ± 10 µg/mL (≈ 67.3 µM) | MIC [14]: 15 ± 3 µg/mL (≈ 33.7 µM) | MIC [15]: 4 ± 1 µg/mL (≈ 8.98 µM) | MFC ([15]; Trichoderma viride, IAM5061): 8 ± 0.6 µg/mL (≈ 18 µM) | MIC [15, 20]: 4 µg/mL (≈ 8.98 µM) | MFC [16]: 30 ± 10 µg/mL (≈ 67.3 µM) | MIC [16]: 15 ± 3 µg/mL (≈ 33.7 µM) | melting point: 213 to 214 °C

COC(=O)c1[nH]c2ccc(F)cc2c1/C=C1\SC(=S)N(CCCC(=O)O)C1=O [Compound 9, (Z)-4-(5-((5-fluoro-2-(methoxycarbonyl)-1H-indol-3-yl)methylene)-4-oxo-2-thioxothiazolidin-3-yl)butanoic acid]
MBC [1]: 60 ± 6 µg/mL (≈ 142 µM) | MIC [1]: 30 ± 10 µg/mL (≈ 71 µM) | MBC [2]: 60 ± 6 µg/mL (≈ 142 µM) | MIC [2]: 30 ± 10 µg/mL (≈ 71 µM) | MBC [3]: 60 ± 6 µg/mL (≈ 142 µM) | MIC [3]: 30 ± 10 µg/mL (≈ 71 µM) | MBC [4]: 60 ± 6 µg/mL (≈ 142 µM) | MIC [4]: 30 ± 10 µg/mL (≈ 71 µM) | MBC [5]: 60 ± 6 µg/mL (≈ 142 µM) | MIC [5]: 30 ± 10 µg/mL (≈ 71 µM) | MBC [6]: 60 ± 6 µg/mL (≈ 142 µM) | MIC [6]: 30 ± 10 µg/mL (≈ 71 µM) | MBC [7]: 60 ± 6 µg/mL (≈ 142 µM) | MIC [7]: 30 ± 10 µg/mL (≈ 71 µM) | MBC [8, 17]: 60 ± 6 µg/mL (≈ 142 µM) | MIC [8, 18]: 30 ± 10 µg/mL (≈ 71 µM) | MIC [9]: 4 ± 1 µg/mL (≈ 9.47 µM) | MFC ([9]; Aspergillus ochraceus): 8 ± 0.6 µg/mL (≈ 18.9 µM) | MIC [9, 19]: 4 µg/mL (≈ 9.47 µM) | MFC [10]: 120 ± 40 µg/mL (≈ 284 µM) | MIC [10]: 90 ± 3 µg/mL (≈ 213 µM) | MFC [11]: 30 ± 10 µg/mL (≈ 71 µM) | MIC [11]: 15 ± 3 µg/mL (≈ 35.5 µM) | MFC [12]: 30 ± 10 µg/mL (≈ 71 µM) | MIC [12]: 15 ± 3 µg/mL (≈ 35.5 µM) | MFC [13]: 30 ± 10 µg/mL (≈ 71 µM) | MIC [13]: 15 ± 3 µg/mL (≈ 35.5 µM) | MFC [14]: 30 ± 10 µg/mL (≈ 71 µM) | MIC [14]: 15 ± 3 µg/mL (≈ 35.5 µM) | MIC [15]: 8 ± 0.6 µg/mL (≈ 18.9 µM) | MFC ([15]; Trichoderma viride, IAM5061): 15 ± 3 µg/mL (≈ 35.5 µM) | MIC [15, 20]: 8 µg/mL (≈ 18.9 µM) | MFC [16]: 15 ± 3 µg/mL (≈ 35.5 µM) | MIC [16]: 22 ± 5 µg/mL (≈ 52.1 µM) | melting point: 192 to 193 °C
